According to publication PMC5323330 (SLAS discovery, 2016):

Experiments:
[1] = tested on: endoplasmic reticulum [Ca2+] in HEK293 cells expressing D1ER; assay: D1ER calcium FRET sensor, ER calcium content in live cells; assay type: cell-based, human; details: 120 min time point
cytosolic calcium = details: cited from earlier work
SERCA = details: cited from earlier work

In the case of `Clc1ccc(COC(Cn2ccnc2)c2ccc(Cl)cc2Cl)c(Cl)c1` (stereo not drawn) [Miconazole], the “ER calcium depletion (decreased D1ER FRET)” value [1] is reported as “largest amount of ER calcium depletion”.
In the case of `Oc1cc(Cl)ccc1Oc1ccc(Cl)cc1Cl` [triclosan], the “cytosolic calcium, earlier report” value (cytosolic calcium) is given as “increase cytosolic calcium”.
For `Clc1ccccc1C(c1ccccc1)(c1ccccc1)n1ccnc1` [Clotrimazole, clotrimazole], the “SERCA function, earlier report” value (SERCA) is given as “inhibit SERCA function”.
